Literature values as cited in patent US20210299023A1, “COMPOSITIONS AND METHODS FOR HAIR GROWTH” (Allergan, Inc., priority 2010, published 2021).

Columns and labels:
eyelash = details: healthy patients
bald scalp of macaques = details: 0.05% latanoprost

| SMILES | eyelash growth (eyelash) | hair growth (bald scalp of macaques) | density and thickness of hair (bald scalp of macaques; after 3 months of treatment) |
| --- | --- | --- | --- |
| CCNC(=O)CCC/C=C\C[C@@H]1[C@@H](/C=C/[C@@H](O)CCc2ccccc2)[C@H](O)C[C@@H]1O [Bimatoprost, bimatoprost] | increased length, thickness, and darkness | – | – |
| CC(C)OC(=O)CCC/C=C\C[C@@H]1[C@@H](CC[C@@H](O)CCc2ccccc2)[C@H](O)C[C@@H]1O [latanoprost] | – | significant hair growth | increased significantly |
